Data from ChEMBL document CHEMBL1201862, “PubChem BioAssay data set” (2004).
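Interpolation was linear, between the two tested concentrations surrounding the appropriate level; five concentrations were tested over 48 hours in 96-well plates. Here, GI50 denotes the concentration required for 50% inhibition of growth.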 The source made the active and inactive calls. Rule as the data show it: active = GI50 up to about 1.1 µM and inactive = higher.

Tests used:
Assay in all cases: NCI-60 cell line screen, 48 h
[1] = tested on: SW-620
[2] = tested on: HOP-62
[3] = tested on: A549
[4] = tested on: UACC-62
[5] = tested on: SF-539
[6] = tested on: NCI-H460
[7] = tested on: Malme-3M
[8] = tested on: M14
[9] = tested on: HCT-15
[10] = tested on: NCI-H23
[11] = tested on: MOLT-4
[12] = tested on: CCRF-CEM
[13] = tested on: IGROV-1
[14] = tested on: ACHN
[15] = tested on: KM12
[16] = tested on: A498
[17] = tested on: SK-MEL-5
[18] = tested on: OVCAR-5
[19] = tested on: HCT-116

SMILES | GI50 [1] | GI50 [2] | GI50 [3] | GI50 [4] | GI50 [5] | GI50 [6] | GI50 [7] | GI50 [8] | GI50 [9] [µM] | GI50 [10] | GI50 [11] | GI50 [12] | GI50 [13] | GI50 [14] | GI50 [15] | GI50 [16] | GI50 [17] | GI50 [18] | GI50 [19]
Oc1cc(-c2ccc3c(c2)OCO3)nc2cc3c(cc12)OCO3 | 35.8 µM (inactive) | 22.9 µM (inactive) | 42.9 µM (inactive) | 36.9 µM (inactive) | 23 µM (inactive) | 40.2 µM (inactive) | 21.2 µM (inactive) | 27.9 µM (inactive) | 40.3 | 32.4 µM (inactive) | 59.8 µM (inactive) | 31.7 µM (inactive) | > 100 µM (inactive) | 46.1 µM (inactive) | 36.1 µM (inactive) |  |  |  | 
C=CCNC(=O)NCCCCC(NC(C)=O)C(=O)NCc1ccccc1 (configuration not stated) | > 100 µM (inactive) | > 100 µM (inactive) | > 100 µM (inactive) | > 100 µM (inactive) | > 100 µM (inactive) | > 100 µM (inactive) | > 100 µM (inactive) | > 100 µM (inactive) | > 100 | > 100 µM (inactive) | > 100 µM (inactive) | > 100 µM (inactive) | > 100 µM (inactive) | > 100 µM (inactive) | > 100 µM (inactive) | > 100 µM (inactive) | > 100 µM (inactive) | > 100 µM (inactive) | 
CCNC(=S)N/N=C/c1cc(OC)ccc1O | > 100 µM (inactive) | > 100 µM (inactive) | 52.8 µM (inactive) | 99.1 µM (inactive) | > 100 µM (inactive) | 35.2 µM (inactive) | > 100 µM (inactive) | > 100 µM (inactive) | 47.6 | > 100 µM (inactive) | 67.1 µM (inactive) | 66.5 µM (inactive) | 82.4 µM (inactive) | 66.7 µM (inactive) | 88.1 µM (inactive) |  | > 100 µM (inactive) | > 100 µM (inactive) | 85.5 µM (inactive)
COc1ccccc1NC(=S)N/N=C(/C)c1ccccn1 | < 0.01 µM (active) | < 0.0127 µM (active) | < 0.0274 µM (active) | 0.238 µM (active) | 0.371 µM (active) | < 0.0132 µM (active) | 0.0789 µM (active) | < 0.01 µM (active) | < 0.0318 | < 0.0185 µM (active) | < 0.01 µM (active) | < 0.01 µM (active) | < 0.01 µM (active) | < 0.0106 µM (active) | 0.117 µM (active) |  | < 0.041 µM (active) |  | < 0.01 µM (active)
Cc1ccc(C(=O)NCCN(C)C)c2nc3ccccc3cc12 | 0.445 µM (active) | 8.24 µM (inactive) | 0.92 µM (active) | 2.47 µM (inactive) |  | 0.34 µM (active) | 2.54 µM (inactive) | 2.69 µM (inactive) | 0.644 |  | 0.608 µM (active) | 1.54 µM (inactive) | 6.58 µM (inactive) | 0.45 µM (active) | 1.1 µM (active) |  | 1.52 µM (inactive) | 1.94 µM (inactive) | 0.468 µM (active)
N#C/C(=C1\SCC(=O)N1c1ccccc1)c1nc2ccccc2[nH]1 | > 100 µM (inactive) | > 100 µM (inactive) | > 100 µM (inactive) | > 100 µM (inactive) | > 100 µM (inactive) | > 100 µM (inactive) | > 100 µM (inactive) | > 100 µM (inactive) | > 100 | > 100 µM (inactive) | > 100 µM (inactive) | > 100 µM (inactive) | > 100 µM (inactive) | > 100 µM (inactive) |  | > 100 µM (inactive) | > 100 µM (inactive) | > 100 µM (inactive) | > 100 µM (inactive)
C=C1C(=O)CC2C1CC(=O)/C(C)=C/CCC(C)(O)C2O (configuration not stated) | 7.26 µM (inactive) | 26.7 µM (inactive) | 27.3 µM (inactive) | 0.603 µM (active) |  | 2.38 µM (inactive) | 1.36 µM (inactive) | > 25.2 µM (inactive) | 4.9 | 8.17 µM (inactive) | 1.57 µM (inactive) | 3.44 µM (inactive) | 10.6 µM (inactive) | 2.37 µM (inactive) | 13.8 µM (inactive) | 1.19 µM (inactive) | 6.79 µM (inactive) | 17.5 µM (inactive) | 3.86 µM (inactive)
O=C(O)CNS(=O)(=O)c1ccc(NC(=O)CI)cc1 | 13.2 µM (inactive) |  | 91.2 µM (inactive) | 25.1 µM (inactive) | 16.1 µM (inactive) | 25.7 µM (inactive) | 18.8 µM (inactive) | 18.6 µM (inactive) | 17.6 | 18.3 µM (inactive) | 12.1 µM (inactive) | 2.33 µM (inactive) | 26.5 µM (inactive) | 52 µM (inactive) | 24.8 µM (inactive) | > 100 µM (inactive) | 22.2 µM (inactive) | 27.6 µM (inactive) | 
O=C1CC[C@@H](S(=O)(=O)c2ccccc2)[C@@H](/C=C/c2ccccc2)O1 | > 100 µM (inactive) | > 100 µM (inactive) | > 100 µM (inactive) | > 100 µM (inactive) | > 100 µM (inactive) | > 100 µM (inactive) | > 100 µM (inactive) | > 100 µM (inactive) | > 100 | > 100 µM (inactive) | > 100 µM (inactive) | > 100 µM (inactive) | > 100 µM (inactive) | > 100 µM (inactive) | > 100 µM (inactive) | > 100 µM (inactive) | > 100 µM (inactive) | > 100 µM (inactive) | > 100 µM (inactive)
Cc1ccc(CNc2ccc(Br)cc2)cc1 | 37.5 µM (inactive) | 83.2 µM (inactive) | 23.8 µM (inactive) | 4.41 µM (inactive) | 36.8 µM (inactive) | 23.8 µM (inactive) | 21.5 µM (inactive) | 59.6 µM (inactive) | 10.4 | 50.2 µM (inactive) | 44.8 µM (inactive) | 11.5 µM (inactive) |  | 11.4 µM (inactive) | 16.3 µM (inactive) | 29.3 µM (inactive) | 6.71 µM (inactive) | > 100 µM (inactive) | 26.7 µM (inactive)
CC(C)(C)CC(C)(C)NCC(O)COc1ccc(C(C)(C)c2ccc(OCC(O)CNC(C)(C)CC(C)(C)C)cc2)cc1 (configuration not stated) | 0.213 µM (active) | 1.77 µM (inactive) | 1.6 µM (inactive) | 1.81 µM (inactive) | 1.86 µM (inactive) | 0.46 µM (active) | 1.59 µM (inactive) | 0.279 µM (active) | 1.37 | 1.76 µM (inactive) | 0.34 µM (active) | 0.356 µM (active) | 1.77 µM (inactive) | 1.77 µM (inactive) | 1.56 µM (inactive) | 1.58 µM (inactive) | 1.32 µM (inactive) | 1.88 µM (inactive) | 2.37 µM (inactive)
N#CC(C#N)=c1ccc(=C2NCC3CCCN23)cc1 (configuration not stated) | > 100 µM (inactive) | > 100 µM (inactive) | > 100 µM (inactive) | > 100 µM (inactive) | > 100 µM (inactive) | > 100 µM (inactive) | > 100 µM (inactive) | > 100 µM (inactive) | > 100 |  | > 100 µM (inactive) | > 100 µM (inactive) | > 100 µM (inactive) |  | > 100 µM (inactive) | > 100 µM (inactive) | > 100 µM (inactive) | > 100 µM (inactive) | > 100 µM (inactive)
O=C1CCC2(CC1CCSc1ccccc1)OCCO2 (configuration not stated) | > 100 µM (inactive) | > 100 µM (inactive) | > 100 µM (inactive) | > 100 µM (inactive) | > 100 µM (inactive) | > 100 µM (inactive) | > 100 µM (inactive) | > 100 µM (inactive) | > 100 | > 100 µM (inactive) | 81.8 µM (inactive) | > 100 µM (inactive) | > 100 µM (inactive) | > 100 µM (inactive) | > 100 µM (inactive) | > 100 µM (inactive) | 88.5 µM (inactive) | > 100 µM (inactive) | 
Cc1cccc2c(=O)c3cccc(CC(=O)O)c3oc12 | > 100 µM (inactive) | > 100 µM (inactive) | > 100 µM (inactive) | > 100 µM (inactive) | > 100 µM (inactive) | > 100 µM (inactive) | > 100 µM (inactive) | > 100 µM (inactive) | > 100 | > 100 µM (inactive) | > 100 µM (inactive) | > 100 µM (inactive) | > 100 µM (inactive) | > 100 µM (inactive) | > 100 µM (inactive) | > 100 µM (inactive) | > 100 µM (inactive) |  | > 100 µM (inactive)
COC(=O)[C@@]12C3=NO[C@]1(C(=O)OC)C(O[Si](C)(C)C(C)(C)C)C1OC(C)(C)OC1[C@@H]2[C@@H](OCc1ccccc1)CC3 (some centres not stated) | > 100 µM (inactive) |  | > 100 µM (inactive) | > 100 µM (inactive) | > 100 µM (inactive) |  |  | 43.9 µM (inactive) | 91 | 58.7 µM (inactive) | 7.52 µM (inactive) | > 100 µM (inactive) | > 100 µM (inactive) |  | 7.73 µM (inactive) | > 100 µM (inactive) | 85.5 µM (inactive) |  | 8.2 µM (inactive)
Nc1ccc(Nc2cc(O)nc(O)n2)cc1 | > 100 µM (inactive) | > 100 µM (inactive) | > 100 µM (inactive) | > 100 µM (inactive) | > 100 µM (inactive) | > 100 µM (inactive) | > 100 µM (inactive) |  | > 100 | > 100 µM (inactive) | > 100 µM (inactive) | > 100 µM (inactive) | > 100 µM (inactive) | > 100 µM (inactive) | > 100 µM (inactive) | > 100 µM (inactive) | > 100 µM (inactive) |  | > 100 µM (inactive)
